Results as given in patent US8604076B2, “Method for producing a pharmaceutical composition comprising rotigotine” (UCB Pharma GmbH, priority 2000, dated 2013).

How the values were obtained:
[1] = release of N-0923 from the depots in the monkey, dose versus plasma level; format: in vivo, Cynomolgus monkeys; conditions: oily crystalline suspensions, FIG. 4, after 3 and 85 daily applications
Procedure: Cynomolgus monkeys were given daily subcutaneous bolus injections of oily N-0923 crystalline suspensions of the following composition: The application was performed daily in dosages of 0.25, 1 and 4 mg/kg. 2, 6 and 24 hours after the 3rd and 85th application plasma samples were taken and analyzed using LC-MS-MS.

[2] = monkeys, aqueous solution; cited from earlier work
[3] = distinct first-pass effect; cited from earlier work
[4] = release of N-0923 from the depot form, plasma level and bioavailability; format: in vivo; conditions: depot formulation according to the invention, read-out: bioavailability of the pharmaceutical composition according to the invention
Procedure: Sprague-Dawley rats were given subcutaneous bolus injections of an oily N-0923 crystalline suspension of the following composition:
6, 24 and 48 hours after the 2nd and 46th administration plasma samples were taken and the N-0923 concentration was analyzed using LC-MS-MS. The readings from 6 animals were averaged.
The test conditions were identical to those in implementation example 5 except that every 48 hours a dose of 12.5 mg N-0923 per kg body weight was applied.
Readings were taken 2, 4, 8, 24, 32 and 48 hours after the 22nd application and were quantified.

[5] = aqueous solution (5% dextrose); cited from earlier work

relation of active-agent plasma levels to the dose introduced in the body [1]: largely linear relation | bioavailability [4]: > 70%
SMILES: CCCN(CCc1cccs1)[C@H]1CCc2c(O)cccc2C1 [N-0923, S(-)-2-(N-propyl-N-2-thienylethylamino)-5-hydroxytetralin]
half-time value after intravenous injection [2]: 52 min | bioavailability after oral administration [3]: about 0.5% | time for which the subcutaneous injection was effective [5]: 60 to 70 min
